# According to PubChem BioAssay AID248 (DTP/NCI, 2004):
# Values joined by “and” are separate entries in the source; they are usually repeats but may differ in a detail not shown here. Equal values may be shown once. Inconclusive results and toxic doses are left out.
# Tested on: L1210 leukemia ip in BDF1 mice, survival T/C
# Assay: NCI In Vivo Anticancer Drug Screen. Data for tumor model L1210 Leukemia (intraperitoneal) in B6D2F1 (BDF1) mice
# Settings: higher = longer survival
# Method in brief: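 Ratio derived from survival: compound-dosed mice over vehicle-dosed mice, all bearing a transplantable tumor.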
# [1] = endpoint: mean survival time, dose: 25.0 mg/kg/injection, schedule: Q04DX002 (ip), vehicle: Klucel (hydroxypropylcellulose) (HPC)
# [2] = endpoint: mean survival time, dose: 50.0 mg/kg/injection, schedule: Q04DX002 (ip), vehicle: Klucel (hydroxypropylcellulose) (HPC)
# [3] = endpoint: mean survival time, dose: 100.0 mg/kg/injection, schedule: Q01DX009 (ip), vehicle: Klucel (hydroxypropylcellulose) (HPC)
# [4] = endpoint: mean survival time, dose: 200.0 mg/kg/injection, schedule: Q01DX009 (ip), vehicle: Klucel (hydroxypropylcellulose) (HPC)
# [5] = endpoint: mean survival time, dose: 400.0 mg/kg/injection, schedule: Q01DX009 (ip), vehicle: Klucel (hydroxypropylcellulose) (HPC)
# [6] = endpoint: mean survival time, dose: 50.0 mg/kg/injection, schedule: Q01DX001 (ip), vehicle: saline
# [7] = endpoint: mean survival time, dose: 100.0 mg/kg/injection, schedule: Q01DX001 (ip), vehicle: saline
# [8] = endpoint: mean survival time, dose: 200.0 mg/kg/injection, schedule: Q01DX001 (ip), vehicle: saline
# [9] = endpoint: mean survival time, dose: 400.0 mg/kg/injection, schedule: Q01DX001 (ip), vehicle: saline
# [10] = endpoint: mean survival time, dose: 15.0 mg/kg/injection, schedule: Q01DX Z (ip), vehicle: carboxymethylcellulose (CMC)
# [11] = endpoint: mean survival time, dose: 100.0 mg/kg/injection, schedule: Q01DX001 (ip), vehicle: carboxymethylcellulose (CMC)
# [12] = endpoint: mean survival time, dose: 100.0 mg/kg/injection, schedule: Q01DX009 (ip), vehicle: saline with Tween-80
# [13] = endpoint: mean survival time, dose: 200.0 mg/kg/injection, schedule: Q01DX009 (ip), vehicle: saline with Tween-80
# [14] = endpoint: mean survival time, dose: 400.0 mg/kg/injection, schedule: Q01DX009 (ip), vehicle: saline with Tween-80
structure (smiles),measurement,setting,value
Nc1ncnc2nc(-c3ccccc3)[nH]c12,T/C,[1],102 % of control
same,T/C,[2],94 % of control
same,T/C,"endpoint: mean survival time, dose: 100.0 mg/kg/injection, schedule: Q04DX002 (ip), vehicle: Klucel (hydroxypropylcellulose) (HPC)",91 % of control
CCCCCCCCCCCCCCOc1ccc(Cl)cc1Cl,T/C,[3],107 % of control
same,T/C,[4],100 % of control
same,T/C,[5],105 % of control
O/N=C1\CCCc2sccc21,T/C,"endpoint: mean survival time, dose: 100.0 mg/kg/injection, schedule: Q01DX001 (ip), vehicle: steriod suspending solution",114 % of control
same,T/C,"endpoint: mean survival time, dose: 200.0 mg/kg/injection, schedule: Q01DX001 (ip), vehicle: steriod suspending solution",98 % of control
same,T/C,"endpoint: mean survival time, dose: 400.0 mg/kg/injection, schedule: Q01DX001 (ip), vehicle: steriod suspending solution",98 % of control
CSc1ccc(C(=O)NN)cc1,T/C,[6],101 % of control
same,T/C,[7],101 % of control
same,T/C,[8],101 % of control
same,T/C,[9],104 % of control
CCC[CH2][Sn]1([CH2]CCC)[O]C(=O)c2ccc(C(=O)O)cc2C(=O)[O]1,T/C,"endpoint: mean survival time, dose: 5.0 mg/kg/injection, schedule: Q01DX001 (ip), vehicle: saline",105 % of control
O=C(Nc1cccc(C(=O)Nc2ccc(C3=NCCN3)cc2)c1)c1ccc(C2=NCCN2)cc1,T/C,[10],96 % of control
same,T/C,"endpoint: mean survival time, dose: 15.0 mg/kg/injection, schedule: Q01DX Z (sc), vehicle: saline",120 % of control
same,T/C,"endpoint: mean survival time, dose: 30.0 mg/kg/injection, schedule: Q01DX Z (ip), vehicle: carboxymethylcellulose (CMC)",120 % of control
same,T/C,"endpoint: mean survival time, dose: 60.0 mg/kg/injection, schedule: Q01DX Z (sc), vehicle: saline",109 % of control
same,T/C,"endpoint: mean survival time, dose: 62.5 mg/kg/injection, schedule: Q01DX010 (oral), vehicle: saline",104 % of control
same,T/C,"endpoint: mean survival time, dose: 88.0 mg/kg/injection, schedule: Q01DX007 (oral), vehicle: carboxymethylcellulose (CMC)",101 % of control
same,T/C,"endpoint: mean survival time, dose: 120.0 mg/kg/injection, schedule: Q01DX Z (ip), vehicle: carboxymethylcellulose (CMC)",185 % of control
same,T/C,"endpoint: mean survival time, dose: 120.0 mg/kg/injection, schedule: Q01DX Z (sc), vehicle: saline",230 % of control
same,T/C,"endpoint: mean survival time, dose: 125.0 mg/kg/injection, schedule: Q01DX010 (oral), vehicle: saline",104 % of control
same,T/C,"endpoint: mean survival time, dose: 175.0 mg/kg/injection, schedule: Q01DX007 (oral), vehicle: carboxymethylcellulose (CMC)",97 % of control
same,T/C,"endpoint: mean survival time, dose: 250.0 mg/kg/injection, schedule: Q01DX010 (oral), vehicle: saline",103 % of control
same,T/C,"endpoint: mean survival time, dose: 350.0 mg/kg/injection, schedule: Q01DX007 (oral), vehicle: carboxymethylcellulose (CMC)",105 % of control
same,T/C,"endpoint: mean survival time, dose: 500.0 mg/kg/injection, schedule: Q01DX010 (oral), vehicle: saline",106 % of control
same,T/C,"endpoint: mean survival time, dose: 700.0 mg/kg/injection, schedule: Q01DX007 (oral), vehicle: carboxymethylcellulose (CMC)",105 % of control
CN(C)CCN(C)CCN(C)CCN(C)C,T/C,"endpoint: mean survival time, dose: 100.0 mg/kg/injection, schedule: Q01DX009 (ip), vehicle: saline",95 % of control
same,T/C,"endpoint: mean survival time, dose: 200.0 mg/kg/injection, schedule: Q01DX009 (ip), vehicle: saline",100 % of control
CC(C)c1ccc(/C=C(\C(=O)O)c2cccc3ccccc23)cc1,T/C,[3],101 % of control
C[n+]1cc2cc(O)c(O)cc2c2ccc3cc(O)c(O)cc3c21,T/C,"endpoint: mean survival time, dose: 40.0 mg/kg/injection, schedule: Q01DX009 (ip), vehicle: saline",102 % of control
same,T/C,"endpoint: mean survival time, dose: 80.0 mg/kg/injection, schedule: Q01DX009 (ip), vehicle: saline",107 % of control
same,T/C,"endpoint: mean survival time, dose: 120.0 mg/kg/injection, schedule: Q01DX009 (ip), vehicle: saline",98 % of control
same,T/C,"endpoint: mean survival time, dose: 240.0 mg/kg/injection, schedule: Q01DX009 (ip), vehicle: saline",98 % of control
CCCCCN(C)/N=N/c1nc[nH]c1C(N)=O,T/C,"endpoint: mean survival time, dose: 7.5 mg/kg/injection, schedule: Q01DX Z (ip), vehicle: carboxymethylcellulose (CMC)",102 % of control
same,T/C,"endpoint: mean survival time, dose: 10.0 mg/kg/injection, schedule: Q01DX Z (ip), vehicle: carboxymethylcellulose (CMC)",110 % of control
same,T/C,"endpoint: mean survival time, dose: 11.0 mg/kg/injection, schedule: Q01DX009 (ip), vehicle: carboxymethylcellulose (CMC)",101 % of control
same,T/C,[10],119 % of control
same,T/C,"endpoint: mean survival time, dose: 16.75 mg/kg/injection, schedule: Q01DX009 (ip), vehicle: carboxymethylcellulose (CMC)",100 % of control
same,T/C,"endpoint: mean survival time, dose: 25.0 mg/kg/injection, schedule: Q01DX009 (ip), vehicle: carboxymethylcellulose (CMC)",118 % of control
same,T/C,"endpoint: mean survival time, dose: 37.5 mg/kg/injection, schedule: Q01DX009 (ip), vehicle: carboxymethylcellulose (CMC)",124 % of control
same,T/C,"endpoint: mean survival time, dose: 75.0 mg/kg/injection, schedule: Q01DX Z (ip), vehicle: carboxymethylcellulose (CMC)",117 % of control
same,T/C,[11],119 % of control
same,T/C,"endpoint: mean survival time, dose: 100.0 mg/kg/injection, schedule: Q01DX009 (ip), vehicle: carboxymethylcellulose (CMC)",154 % of control
same,T/C,"endpoint: mean survival time, dose: 120.0 mg/kg/injection, schedule: Q01DX015 (ip), vehicle: carboxymethylcellulose (CMC)",96 % of control
same,T/C,"endpoint: mean survival time, dose: 178.0 mg/kg/injection, schedule: Q01DX001 (ip), vehicle: carboxymethylcellulose (CMC)",108 % of control
same,T/C,"endpoint: mean survival time, dose: 200.0 mg/kg/injection, schedule: Q01DX001 (ip), vehicle: carboxymethylcellulose (CMC)",152 % of control
same,T/C,"endpoint: mean survival time, dose: 267.0 mg/kg/injection, schedule: Q01DX001 (ip), vehicle: carboxymethylcellulose (CMC)",117 % of control
same,T/C,"endpoint: mean survival time, dose: 600.0 mg/kg/injection, schedule: Q01DX001 (ip), vehicle: carboxymethylcellulose (CMC)",123 % of control
same,T/C,"endpoint: median survival time, dose: 12.5 mg/kg/injection, schedule: Q01DX011 (ip), vehicle: steriod suspending solution",112 % of control
same,T/C,"endpoint: median survival time, dose: 25.0 mg/kg/injection, schedule: Q01DX011 (ip), vehicle: steriod suspending solution",112 % of control
same,T/C,"endpoint: median survival time, dose: 100.0 mg/kg/injection, schedule: Q01DX011 (ip), vehicle: steriod suspending solution",218 % of control
CCOC(=O)CNC1=NCCO1,T/C,[12],91 % of control
same,T/C,[13],96 % of control
same,T/C,[14],93 % of control
CCNC(=S)Nc1ccccc1,T/C,"endpoint: mean survival time, dose: 37.5 mg/kg/injection, schedule: Q01DX009 (ip), vehicle: Klucel (hydroxypropylcellulose) (HPC)",102 % of control
same,T/C,"endpoint: mean survival time, dose: 75.0 mg/kg/injection, schedule: Q01DX009 (ip), vehicle: Klucel (hydroxypropylcellulose) (HPC)",104 % of control
same,T/C,"endpoint: mean survival time, dose: 150.0 mg/kg/injection, schedule: Q01DX009 (ip), vehicle: Klucel (hydroxypropylcellulose) (HPC)",115 % of control
COC1OCC(O)C(O)C1OS(C)(=O)=O (centres undefined),T/C,[7],110 % of control
same,T/C,[8],101 % of control
same,T/C,[9],104 % of control
O=[N+]([O-])c1ccccc1SNc1ccc(NSc2ccccc2[N+](=O)[O-])cc1,T/C,"endpoint: mean survival time, dose: 3.13 mg/kg/injection, schedule: Q01DX001 (ip), vehicle: saline with Tween-80",105 % of control
same,T/C,"endpoint: mean survival time, dose: 6.25 mg/kg/injection, schedule: Q01DX001 (ip), vehicle: saline with Tween-80",100 % of control
same,T/C,"endpoint: mean survival time, dose: 12.5 mg/kg/injection, schedule: Q01DX001 (ip), vehicle: saline with Tween-80",97 % of control
C=C1CC[N+]2(CC(=O)c3ccc(Br)cc3)CCCC12 (centres undefined),T/C,"endpoint: mean survival time, dose: 12.5 mg/kg/injection, schedule: Q01DX001 (ip), vehicle: saline",92 % of control
same,T/C,"endpoint: mean survival time, dose: 25.0 mg/kg/injection, schedule: Q01DX001 (ip), vehicle: saline",92 % of control
same,T/C,[6],101 % of control
CCCCNc1ncnc2c1nnn2C1OC(CO)C(O)C1O (centres undefined),T/C,"endpoint: mean survival time, dose: 12.5 mg/kg/injection, schedule: Q04DX002 (ip), vehicle: Klucel (hydroxypropylcellulose) (HPC)",100 % of control
same,T/C,[1],94 % of control
same,T/C,[2],97 % of control
Cc1ccc(Cl)cc1NC(=O)Oc1ccccc1C(=O)OCc1ccccc1,T/C,[12],97 % of control
same,T/C,[13],100 % of control
same,T/C,[14],94 % of control
CCOC(=O)C(Cc1csc2ccccc12)(NC(C)=O)C(=O)OCC,T/C,"endpoint: mean survival time, dose: 44.4 mg/kg/injection, schedule: Q01DX001 (ip), vehicle: carboxymethylcellulose (CMC)",93 % of control and 94 % of control
same,T/C,"endpoint: mean survival time, dose: 66.7 mg/kg/injection, schedule: Q01DX001 (ip), vehicle: carboxymethylcellulose (CMC)",93 % of control and 94 % of control
same,T/C,[11],94 % of control and 98 % of control
same,T/C,"endpoint: mean survival time, dose: 150.0 mg/kg/injection, schedule: Q01DX001 (ip), vehicle: carboxymethylcellulose (CMC)",101 % of control and 91 % of control
O=C(Nc1cc(C(F)(F)F)ccc1Cl)Nc1ccc(Cl)cc1[N+](=O)[O-],T/C,[3],93 % of control
same,T/C,[4],87 % of control
same,T/C,[5],100 % of control
Cc1ccc(S(=O)(=O)OCC(C)(C)NC(=O)c2ccc([N+](=O)[O-])cc2)cc1,T/C,"endpoint: mean survival time, dose: 100.0 mg/kg/injection, schedule: Q01DX001 (ip), vehicle: saline with Tween-80",91 % of control
same,T/C,"endpoint: mean survival time, dose: 200.0 mg/kg/injection, schedule: Q01DX001 (ip), vehicle: saline with Tween-80",105 % of control
same,T/C,"endpoint: mean survival time, dose: 400.0 mg/kg/injection, schedule: Q01DX001 (ip), vehicle: saline with Tween-80",91 % of control
